According to patent publication US10155727B2, “Pyrazoles” (Janssen Pharmaceuticals, Inc., priority 2014, dated 2018):
Counter-ions that a name gives are not always drawn. Like-named read-outs stand apart in the source and are kept apart here.

Experiments:
hERG receptor = hERG receptor (Homo sapiens (Human), UniProt Q12809); assay: HERGBD: inhibition of specific [3H]-Dofetilide binding to the hERG receptor
Method: Inhibition of Specific Binding to the hERG—Receptor (HERGBD)
A HEK cell line with stable transfected human ERG receptor was used for the assay. The cells were grown adherently and maintained in DULBECCOS' MEM medium with 10% FBS, 1% non-essential amino acids, 1% Penicillin/Streptomycin and 400 μg/ml G418 (Calbiochem).
For binding assays and membrane preparations the cell culture medium was removed, cells were washed with PBS. Crude membranes for radioligand binding experiments were prepared by scraping the cells off the dishes in ice cold 20 mM HEPES/0.1 mM KCl/pH 7.2. The cell suspension was homogenized on ice (Ultra turrax, 3×20 sec.) and the homogenate was spun for 10 min (1° C., 1000 g, OPTIMA, SW28, 2800 U/min). The supernatant was than centrifuged for 40 min at 100000 g (1° C., OPTIMA, SW28, 23000 U/min). The membrane pellet was re-suspended in 20 mM HEPES/0.1 mM KCl pH 7.2, frozen and stored at −80° C.
After thawing on the day of the assay, the membrane suspension was diluted further with 20 mM HEPES/0.1 mM KCl/pH 7.2.
The incubation mixture of 200 μl contained 1.5 nmol/l 3H-Dofetilide, optimized amount of membrane preparation, 20 mM HEPES/0.1 mM KCl/(pH 7.2) and inhibitor in 1% DMSO. Nonspecific binding was estimated in the presence of […] Dofetilide. The samples were incubated for 90 min. at RT.
Binding was terminated by filtration of the incubated membrane preparations using Filtermat B (Pharmacia, Uppsala Sweden) and a Micro Cell Harvester (Skatron, Lier, Norway). The Filtermat B had been presoaked with 1% polyethylen imine and carefully washed with 0.05 M Tris/HCl-buffer pH=7.7 after the filtration to separate free and bound radioactivity. The filters were counted in a scintillation counter (Betaplate 1205, Berthold, Wildbad, Germany) in order to determine the specific binding of [^3H]-Dofetilide.
The optimal amount of membrane preparation in the assay was determined and optimized for each membrane preparation separately in front of using the membranes in compound testing.
For pipetting of the incubation mixture we routinely use the robot Biomek2000 (Fa. Beckman).

rat NR1/NR2B receptor = rat NR1/NR2B receptor (Rattus norvegicus (Rat), UniProt P35439+Q00960); assay: NR2B binding assay: inhibition of specific [3H]-Ifenprodil binding to the rat NR1/NR2B receptor; settings: for inhibition at 1 µM: read-out: % INH @ 1 μM
Method: Biological Assays Inhibition of Specific Binding to the Rat NR1/NR2B Receptor
Male Wistar rats (180 to 200 g) were killed by suffocation in a CO2 chamber for two minutes. Whole brains without cerebellum were removed and dissected on ice, placed into closed vials and stored at −70° C.
Membrane fractions were prepared and tested using standard techniques. At the time of the assay, 1 g of the brains was placed into 25 ml of 50 mM Tris/10 mM EDTA buffer, pH 7.1, (25 vol. per g of original tissue) and homogenized for 30 sec at 20000 rpm with an Ultraturrax T25 (Jahnke & Kunkel, IKA-Labortechnik, Staufen, Germany).
The supernatant was discarded and the pellet was homogenized on ice for 30 sec at 20000 rpm with an Ultraturrax and again centrifuged at 48000 g for 30 minutes at 4° C. The resultant pellet was resuspended in 25 ml of 50 mM Tris/10 mM EDTA buffer, homogenized for 30 sec with an Ultraturrax, aliquoted, frozen at −70° C. and stored until use.
After thawing on the day of the assay, a 5 ml membrane aliquot was centrifuged at 48000 g for 30 min at 4° C. The pellet was resuspended in 5 ml of 5 mM Tris/1 mM EDTA buffer, pH 7.4, homogenized for 30 sec at 20000 rpm with an Ultraturrax and centrifuged at 48000 g for 30 min at 4° C. This was repeated twice. The final pellet was homogenized in 5 ml of 5 mM Tris/1 mM EDTA buffer at 4° C. with an Ultraturrax and used for the Ifenprodil-binding assay as described in the following.
Nonspecific binding was estimated in the presence of […] CP101.606. The samples were incubated for 60 min. at 4° C.
The incubation was terminated by filtration of the membrane preparations using Filtermat B (Pharmacia, Uppsala Sweden) and a Micro Cell Harvester (Skatron, Lier, Norway). The Filtermat B had been presoaked with 1% polyethylene imine and carefully washed with 50 mM Tris/HCl-buffer pH 7.7 after the filtration to separate free and bound radioactivity.
The optimal amount of membrane preparation in the assay was determined and optimized for each membrane preparation separately before the test.
For pipetting of the incubation mixture the robot Biomek2000 (Fa. Beckman) was used.
For determination of IC50 values the Hill-plot, 2-parameter-model was used.

[1] = biological target: human NR1/NR2B ion channels (Homo sapiens (Human), UniProt Q05586+Q13224); assay: HNR2BC: calcium influx assay on cloned human NR1/NR2B ion channels expressed in HEK cells; type: cell-based; settings: HEK cells with hNR1/NR2B, 100 μM glutamate + 100 μM glycine, 3 parameter plot
Method: HNR2BC: Effects of Test Articles on Cloned Human NR1/NR2B Ion Channels Expressed in Mammalian Cells
The ability of test compounds to act as an antagonist of NR1/NR2B was evaluated with a calcium influx assay (Calcium 5 Assay Kit, Molecular Devices).
For the antagonist assessment, NR1/NR2B was activated with the positive control agonist (Mg^2+-free HBPS+100 μM glutamic acid+100 μM glycine).
A HEK cell line, stable transfected with hNR1/NR2B was used. This tetracycline inducible cell line is transfected with GRIN1 (GeneBank accession number NM_007327.2) and GRIN2B (GeneBank accession number NM_000834.3.). The cells were cultured in cell culture flasks with DMEM/F12 supplemented with 10% FCS, 1% PenStrep and a selection of additional antibiotics.
Forty-Eight (48) hours before the assay the cells were plated into 96-well black well, flat clear bottom microtiter plates at a density of 50000 cells/well. Twenty-Four (24) hours later the receptor expression was induced by the addition of 1 μg/ml tetracycline in the presence of 2 mM ketamine and 200 μM 7-CKA. After 24 h of receptor induction the plates were used for the assay.
The medium was removed and the cells were loaded with 200 μl loading buffer (Molecular Devices) in Mg2+-free HBPS containing 100 μM 7-CKA at 37° C. for one (1) hour.
The test compounds were then solubilized in 100% DMSO and diluted to yield eight (8) different concentrations in 100% DMSO. A 96 well drug plate was prepared by diluting with water and glycine/glutamate to a 5-fold of final test concentration. Fluorescence intensity of the cells in the plate was measured in a FlexStation using an excitation wavelength of 485 nm and an emission wavelength of 525 nm. Twenty (20) seconds after starting the recordings the compounds together with the agonists glycine (100 μM) and glutamate (100 μM) were added into the wells and the fluorescence measured for ninety (90) seconds in summary.
The IC50 values provided in the paragraph below were determined using a 3 parameter plot.

[2] = [3H]-Ifenprodil binding, rat brain membranes
[3] = [3H]-Dofetilide binding, membranes of HEK cells with human ERG receptor, read-out: IC50

human NR1/NR2B ion channels, sequence (Q13224 27-1484, other chains not shown): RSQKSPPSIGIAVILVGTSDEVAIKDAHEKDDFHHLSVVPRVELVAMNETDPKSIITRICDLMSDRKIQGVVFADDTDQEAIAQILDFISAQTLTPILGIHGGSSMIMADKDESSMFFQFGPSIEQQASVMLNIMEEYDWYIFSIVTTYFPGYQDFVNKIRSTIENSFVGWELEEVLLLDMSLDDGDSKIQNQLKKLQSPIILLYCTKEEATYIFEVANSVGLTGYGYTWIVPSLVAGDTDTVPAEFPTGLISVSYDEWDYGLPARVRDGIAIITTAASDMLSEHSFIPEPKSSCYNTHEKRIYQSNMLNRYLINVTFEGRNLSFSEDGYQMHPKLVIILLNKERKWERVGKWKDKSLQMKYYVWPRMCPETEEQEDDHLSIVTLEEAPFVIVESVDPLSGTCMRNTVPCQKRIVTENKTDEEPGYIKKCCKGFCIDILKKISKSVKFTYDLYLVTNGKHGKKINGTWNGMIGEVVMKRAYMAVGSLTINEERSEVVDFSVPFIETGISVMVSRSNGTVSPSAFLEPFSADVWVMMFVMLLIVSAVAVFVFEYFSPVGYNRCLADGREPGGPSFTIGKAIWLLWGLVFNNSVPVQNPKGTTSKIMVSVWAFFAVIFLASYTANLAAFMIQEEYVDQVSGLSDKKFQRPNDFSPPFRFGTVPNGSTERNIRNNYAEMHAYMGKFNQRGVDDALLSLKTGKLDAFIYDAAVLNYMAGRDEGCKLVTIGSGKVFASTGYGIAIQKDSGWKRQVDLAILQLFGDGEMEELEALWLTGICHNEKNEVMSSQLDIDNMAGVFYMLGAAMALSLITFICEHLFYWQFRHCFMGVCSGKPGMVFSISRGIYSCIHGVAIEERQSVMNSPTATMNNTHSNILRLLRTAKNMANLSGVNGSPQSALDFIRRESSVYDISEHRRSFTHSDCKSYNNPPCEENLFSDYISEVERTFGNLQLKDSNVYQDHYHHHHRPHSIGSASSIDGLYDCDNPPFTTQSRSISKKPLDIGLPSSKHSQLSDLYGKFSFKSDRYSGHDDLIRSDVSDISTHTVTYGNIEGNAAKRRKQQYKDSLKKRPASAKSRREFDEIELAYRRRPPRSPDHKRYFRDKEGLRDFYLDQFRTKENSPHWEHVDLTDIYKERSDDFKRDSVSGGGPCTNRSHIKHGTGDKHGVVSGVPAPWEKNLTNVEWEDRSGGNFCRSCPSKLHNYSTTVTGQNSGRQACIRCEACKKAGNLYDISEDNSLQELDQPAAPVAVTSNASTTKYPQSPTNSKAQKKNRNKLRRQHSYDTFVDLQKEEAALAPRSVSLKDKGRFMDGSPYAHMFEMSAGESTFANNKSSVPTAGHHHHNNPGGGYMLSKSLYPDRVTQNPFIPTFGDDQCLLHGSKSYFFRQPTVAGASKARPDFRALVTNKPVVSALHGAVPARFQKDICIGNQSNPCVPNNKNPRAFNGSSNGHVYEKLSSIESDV
hERG receptor, sequence (Q12809 whole entry): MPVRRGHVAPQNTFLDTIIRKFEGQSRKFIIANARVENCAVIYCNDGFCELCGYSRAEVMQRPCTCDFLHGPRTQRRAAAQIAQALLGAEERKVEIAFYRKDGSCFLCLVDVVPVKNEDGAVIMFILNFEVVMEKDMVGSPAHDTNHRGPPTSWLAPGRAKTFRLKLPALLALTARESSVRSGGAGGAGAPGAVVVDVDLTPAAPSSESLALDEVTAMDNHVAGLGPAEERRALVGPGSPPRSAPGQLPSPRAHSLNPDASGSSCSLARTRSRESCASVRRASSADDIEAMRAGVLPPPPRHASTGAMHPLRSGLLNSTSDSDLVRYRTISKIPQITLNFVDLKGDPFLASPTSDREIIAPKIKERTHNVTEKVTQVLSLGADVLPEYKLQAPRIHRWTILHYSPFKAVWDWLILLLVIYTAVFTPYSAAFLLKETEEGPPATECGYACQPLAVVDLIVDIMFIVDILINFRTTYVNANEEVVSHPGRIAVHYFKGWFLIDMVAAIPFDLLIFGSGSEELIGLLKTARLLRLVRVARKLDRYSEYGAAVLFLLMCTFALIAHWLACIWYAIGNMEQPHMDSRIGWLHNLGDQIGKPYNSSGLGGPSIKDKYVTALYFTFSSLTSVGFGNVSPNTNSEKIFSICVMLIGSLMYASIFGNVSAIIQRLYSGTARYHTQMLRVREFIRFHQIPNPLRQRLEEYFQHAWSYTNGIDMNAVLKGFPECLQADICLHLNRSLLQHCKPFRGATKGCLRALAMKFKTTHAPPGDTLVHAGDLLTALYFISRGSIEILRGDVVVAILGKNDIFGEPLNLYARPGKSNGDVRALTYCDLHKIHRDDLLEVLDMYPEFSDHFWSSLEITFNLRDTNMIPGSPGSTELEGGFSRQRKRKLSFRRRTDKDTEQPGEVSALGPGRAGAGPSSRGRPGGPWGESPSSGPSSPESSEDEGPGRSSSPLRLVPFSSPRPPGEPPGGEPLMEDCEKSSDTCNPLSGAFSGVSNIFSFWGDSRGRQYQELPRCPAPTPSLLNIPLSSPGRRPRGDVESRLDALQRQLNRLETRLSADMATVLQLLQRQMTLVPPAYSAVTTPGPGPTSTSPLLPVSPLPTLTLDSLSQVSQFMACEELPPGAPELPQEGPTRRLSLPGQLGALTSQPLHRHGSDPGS
rat NR1/NR2B receptor, sequence (Q00960 27-1482, other chains not shown): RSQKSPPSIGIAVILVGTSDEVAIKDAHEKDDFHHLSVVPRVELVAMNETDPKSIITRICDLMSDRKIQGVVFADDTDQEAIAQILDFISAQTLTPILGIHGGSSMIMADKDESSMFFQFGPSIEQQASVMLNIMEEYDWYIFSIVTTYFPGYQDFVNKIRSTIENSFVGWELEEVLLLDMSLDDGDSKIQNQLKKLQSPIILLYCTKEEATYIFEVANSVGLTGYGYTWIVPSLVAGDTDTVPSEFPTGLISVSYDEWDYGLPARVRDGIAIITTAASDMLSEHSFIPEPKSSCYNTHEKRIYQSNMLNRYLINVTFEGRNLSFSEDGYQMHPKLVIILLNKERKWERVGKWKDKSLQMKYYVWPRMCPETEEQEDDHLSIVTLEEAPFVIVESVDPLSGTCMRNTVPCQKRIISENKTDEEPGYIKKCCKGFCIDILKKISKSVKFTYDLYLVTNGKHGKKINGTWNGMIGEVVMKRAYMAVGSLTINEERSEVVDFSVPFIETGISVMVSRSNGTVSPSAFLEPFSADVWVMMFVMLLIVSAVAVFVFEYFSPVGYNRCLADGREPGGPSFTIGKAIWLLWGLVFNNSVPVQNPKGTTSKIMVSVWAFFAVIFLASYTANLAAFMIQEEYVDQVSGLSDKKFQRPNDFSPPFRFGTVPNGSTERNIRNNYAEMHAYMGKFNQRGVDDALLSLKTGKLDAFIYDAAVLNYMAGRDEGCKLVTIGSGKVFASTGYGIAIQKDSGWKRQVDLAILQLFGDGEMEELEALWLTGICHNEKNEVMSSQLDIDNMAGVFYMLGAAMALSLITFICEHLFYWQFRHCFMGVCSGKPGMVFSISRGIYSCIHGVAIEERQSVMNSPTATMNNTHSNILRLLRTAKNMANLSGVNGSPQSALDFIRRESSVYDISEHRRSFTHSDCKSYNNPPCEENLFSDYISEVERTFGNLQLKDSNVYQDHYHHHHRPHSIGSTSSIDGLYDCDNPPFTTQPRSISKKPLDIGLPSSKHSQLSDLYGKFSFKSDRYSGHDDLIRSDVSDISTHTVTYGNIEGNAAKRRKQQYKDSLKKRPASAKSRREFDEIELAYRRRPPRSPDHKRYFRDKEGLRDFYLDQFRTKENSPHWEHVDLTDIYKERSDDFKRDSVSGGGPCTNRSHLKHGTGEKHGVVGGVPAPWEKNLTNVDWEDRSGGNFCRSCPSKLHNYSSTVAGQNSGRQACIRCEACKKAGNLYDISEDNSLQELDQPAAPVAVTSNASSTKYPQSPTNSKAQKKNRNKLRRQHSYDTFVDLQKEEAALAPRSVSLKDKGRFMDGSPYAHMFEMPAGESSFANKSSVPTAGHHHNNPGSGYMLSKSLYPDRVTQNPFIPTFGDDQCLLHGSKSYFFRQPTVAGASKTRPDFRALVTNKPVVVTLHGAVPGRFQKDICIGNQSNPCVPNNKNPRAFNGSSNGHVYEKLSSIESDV

| Compound | IC50 (hERG receptor) [µM] | IC50 (rat NR1/NR2B receptor; [2]) [nM] | further results |
| --- | --- | --- | --- |
| Fc1ccc(-c2cnn(Cc3cc[nH]n3)c2)cc1C(F)F [Example 35, 4-[3-(Difluoromethyl)-4-fluoro-phenyl]-1-(1H-pyrazol-3-ylmethyl)pyrazole] | 22.6 | 17.6 | IC50 [1]: 690 nM |
| CCc1[nH]ncc1Cn1cc(-c2ccc(F)c(OC(F)F)c2)cn1 [Example 20, 4-[3-(difluoromethoxy)-4-fluoro-phenyl]-1-[(5-ethyl-1H-pyrazol-4-yl)methyl]pyrazole Tartrate] | – | – | IC50 [1]: 5970 nM |
| FC(F)c1cc(-c2cnn(Cc3cc[nH]n3)c2)ccc1Cl [Example 26, 4-[4-Chloro-3-(difluoromethyl)phenyl]-1-(1H-pyrazol-3-ylmethyl)pyrazole] | – | – | IC50 [1]: 890 nM |
| CCc1[nH]ncc1Cn1cc(-c2ccc(Cl)c(OC(F)F)c2)cn1 [Example 17, 4-[4-Chloro-3-(difluoromethoxy)phenyl]-1-[(5-ethyl-1H-pyrazol-4-yl)methyl]pyrazole] | – | – | IC50 [1]: 3700 nM |
| FC(F)Oc1cc(-c2cnn(Cc3cc[nH]n3)c2)ccc1Cl [Example 6] | – | – | IC50 [1]: 230 nM |
| CCCc1cc(Cn2cc(-c3ccc(Cl)c(OC(F)F)c3)cn2)n[nH]1 [Example 15, 3-[[4-[4-Chloro-3-(difluoromethoxy)phenyl]pyrazol-1-yl]methyl]-5-propyl-1H-pyrazole] | – | 163 | IC50 (hERG receptor; [3]): 7.93 µM |
| CC(F)(F)c1cccc(-c2cnn(Cc3cc[nH]n3)c2)c1 [Example 93, 3-[[4-(3-(1,1-difluoroethyl)-phenyl)pyrazol-1-yl]methyl]-1H-pyrazole Maleate] | – | 25.2 | IC50 (hERG receptor; [3]): 129 µM |
| Fc1cc(-c2cnn(Cc3cc[nH]n3)c2)cc(C(F)F)c1 [Example 47, 4-[3-(difluoromethyl)-5-fluoro-phenyl]-1-(1H-pyrazol-3-ylmethyl) pyrazole Succinate] | > 100 | 203 | – |
| COc1cc(F)ccc1-c1cnn(Cc2cc(C)nn2C)c1 [Example 68, 5-[[4-(4-fluoro-2-methoxy-phenyl)pyrazol-1-yl]methyl]-1,3-dimethyl-pyrazole Succinate] | – | – | IC50 (hERG receptor; [3]): 93.6 µM; inhibition at 10 µM (rat NR1/NR2B receptor; 10 μM test compound, [3H]-Ifenprodil binding, rat brain membranes, read-out: % INH @ 10 μM): 26.3%; inhibition at 1 µM (rat NR1/NR2B receptor): 8.7% |
| Cc1cc(-c2cnn(Cc3cc[nH]n3)c2)ccc1F [Example 56, 4-(4-fluoro-3-methyl-phenyl)-1-(1H-pyrazol-3-ylmethyl)pyrazole] | 93.8 | 78.7 | – |
| CCn1cncc1Cn1cc(-c2ccc(Cl)cc2)cn1 [Example 98, 4-(4-chlorophenyl)-1-((1-ethyl-1H-imidazol-5-yl)methyl)-1H-pyrazole] | 3.55 | 1060 | – |
| Cn1ccc(Cn2cc(-c3ccc(Cl)c(C(F)(F)F)c3)cn2)n1 [Example 30, 3-[[4-[4-chloro-3-(trifluoromethyl)phenyl]pyrazol-1-yl]methyl]-1-methyl-pyrazole] | 3.47 | 1010 | – |
| Cc1n[nH]c(C)c1Cn1cc(-c2ccc(F)c(C(F)F)c2)cn1 [Example 89, 4-[[4-(3-difluoromethyl-4-fluoro-phenyl)pyrazol-1-yl]methyl]-3,5-dimethyl-1H-pyrazole] | 88.2 | 736 | – |
| Cn1nccc1Cn1cc(-c2ccc(Cl)c(OC(F)F)c2)cn1 [Example 5, 4-[4-Chloro-3-(difluoromethoxy)phenyl]-1-[(2-methylpyrazol-3-yl)methyl]pyrazole] | 64.3 | 148 | – |
| Cn1cc(Cn2cc(-c3ccc(Cl)c(OC(F)F)c3)cn2)cn1 [Example 4, 4-[4-Chloro-3-(difluoromethoxy)phenyl]-1-[(1-methylpyrazol-4-yl)methyl]pyrazole] | – | – | IC50 [1]: 1750 nM |
| Fc1ccc(-c2cnn(Cc3cc(Cn4ccc(-c5ccc(F)c(C(F)F)c5)n4)n[nH]3)c2)cc1C(F)F [Example 103, 3-(3-(difluoromethyl)-4-fluorophenyl)-1-((5-((4-(3-(difluoromethyl)-4-fluorophenyl)-1H-pyrazol-1-yl)methyl)-1H-pyrazol-3-yl)methyl)-1H-pyrazole] | > 10 | – | inhibition at 1 µM (rat NR1/NR2B receptor; 1 μM test compound, [3H]-Ifenprodil binding, rat brain membranes): 15.5% |
| Cn1nccc1-n1cc(-c2ccc(F)c(Cl)c2)cn1 [Example 101, 4-(3-chloro-4-fluorophenyl)-2′-methyl-2′H-1,3′-bipyrazole] | 118 | 5600 | – |
| Cc1cc(Cn2cc(-c3ccc(F)c(Cl)c3)cn2)n(C)n1 [Example 62, 5-[[4-(3-chloro-4-fluoro-phenyl)pyrazol-1-yl]methyl]-1,3-dimethyl-pyrazole] | 41.9 | 857 | – |
| Cn1ccc(Cn2cc(-c3ccc(Cl)c(C(F)F)c3)cn2)n1 [Example 24, 3-[[4-[4-chloro-3-(difluoromethyl)phenyl]pyrazol-1-yl]methyl]-1-methyl-pyrazole] | – | 410 | IC50 (hERG receptor; [3]): 4.89 µM |
| Cn1nccc1-n1cc(-c2ccc(Cl)c(Cl)c2)cn1 [Example 100, 4-(3,4-dichlorophenyl)-2′-methyl-2′H-1,3′-bipyrazole] | – | 3170 | IC50 (hERG receptor; [3]): 60.3 µM |
| Cn1cc(Cn2cc(-c3ccc(F)c(C(F)F)c3)cn2)cn1 [Example 33, 4-[3-(Difluoromethyl)-4-fluoro-phenyl]-1-[(1-methylpyrazol-4-yl)methyl]pyrazole] | > 100 | 371 | – |
| FC(F)Oc1cccc(-c2cnn(Cc3cc[nH]n3)c2)c1 [Example 94, 3-[[4-(3-(difluoromethoxy)-phenyl)pyrazol-1-yl]methyl]-1H-pyrazole Maleate] | – | 279 | IC50 (hERG receptor; [3]): 120 µM |
